Values after ≈ are worked out from the molar mass of the structure shown. Like-named read-outs stand apart in the source and are kept apart here.
B1: 5ZRF DNA oligo (FAM) (dsDNA)
DNA 1: AGCCGAGCTGCAGCTCGGCT
DNA 2: AGCCGAGCTGCAGCTCGGCT
B2: 5ZRF DNA oligo (IRDye700) (dsDNA)
DNA 1: AGCCGAGCTGCAGCTCGGCT
DNA 2: AGCCGAGCTGCAGCTCGGCT

How the values were obtained:
[1] = in vitro; details: mouse, liver microsomes, pH 7.4
Method: The reaction was initiated by adding NADPH, followed by incubation at 37 °C. […] The samples were then vortexed and centrifuged at 16,000 rpm for 10 min at 4 °C. The supernatants were collected and analyzed by LC/MS/MS to determine the remaining percentage and the half-life (t1/2) by integrating compound peaks and fitting the resulting AUC values and time points to a one-phase decay equation.

[2] = test system: salmon sperm DNA; assay: Ethidium bromide displacement assay; type: binding; details: 100 µg/mL salmon sperm DNA, 2 µg/mL ethidium bromide
Method: (A) Ethidium bromide displacement assays were performed by mixing 100 µg/mL salmon sperm DNA with −/+2 µg/mL ethidium bromide and the indicated compounds. Reactions were subjected to fluorescence emission of 590 nm and excitation of 535 nm. Obtained signals were detected by using the Multimode Microplate Reader (Infinite F500). […] Reactions were subjected to 5–20% LED/excitation power and medium MST power using premium capillaries. Obtained signals were detected by using the Monolith NT.115 system. The change in thermophoresis is expressed as the change in the normalized fluorescence (ΔFnorm). MST assays were repeated with two control compounds, enzalutamide (Enza) and merbarone.

[3] = molecular target: T1, full-length TOP2B (Homo sapiens, UniProt Q02880); assay: DNA cleavage assay, TOP2B; type: biochemical; set-up: DNA cleavage assays were performed using full-length human TOP2A and TOP2B; details: 200 µM etoposide plus 1, 100 or 200 µM compound, pHOT plasmid
T1 sequence (Q02880 whole entry): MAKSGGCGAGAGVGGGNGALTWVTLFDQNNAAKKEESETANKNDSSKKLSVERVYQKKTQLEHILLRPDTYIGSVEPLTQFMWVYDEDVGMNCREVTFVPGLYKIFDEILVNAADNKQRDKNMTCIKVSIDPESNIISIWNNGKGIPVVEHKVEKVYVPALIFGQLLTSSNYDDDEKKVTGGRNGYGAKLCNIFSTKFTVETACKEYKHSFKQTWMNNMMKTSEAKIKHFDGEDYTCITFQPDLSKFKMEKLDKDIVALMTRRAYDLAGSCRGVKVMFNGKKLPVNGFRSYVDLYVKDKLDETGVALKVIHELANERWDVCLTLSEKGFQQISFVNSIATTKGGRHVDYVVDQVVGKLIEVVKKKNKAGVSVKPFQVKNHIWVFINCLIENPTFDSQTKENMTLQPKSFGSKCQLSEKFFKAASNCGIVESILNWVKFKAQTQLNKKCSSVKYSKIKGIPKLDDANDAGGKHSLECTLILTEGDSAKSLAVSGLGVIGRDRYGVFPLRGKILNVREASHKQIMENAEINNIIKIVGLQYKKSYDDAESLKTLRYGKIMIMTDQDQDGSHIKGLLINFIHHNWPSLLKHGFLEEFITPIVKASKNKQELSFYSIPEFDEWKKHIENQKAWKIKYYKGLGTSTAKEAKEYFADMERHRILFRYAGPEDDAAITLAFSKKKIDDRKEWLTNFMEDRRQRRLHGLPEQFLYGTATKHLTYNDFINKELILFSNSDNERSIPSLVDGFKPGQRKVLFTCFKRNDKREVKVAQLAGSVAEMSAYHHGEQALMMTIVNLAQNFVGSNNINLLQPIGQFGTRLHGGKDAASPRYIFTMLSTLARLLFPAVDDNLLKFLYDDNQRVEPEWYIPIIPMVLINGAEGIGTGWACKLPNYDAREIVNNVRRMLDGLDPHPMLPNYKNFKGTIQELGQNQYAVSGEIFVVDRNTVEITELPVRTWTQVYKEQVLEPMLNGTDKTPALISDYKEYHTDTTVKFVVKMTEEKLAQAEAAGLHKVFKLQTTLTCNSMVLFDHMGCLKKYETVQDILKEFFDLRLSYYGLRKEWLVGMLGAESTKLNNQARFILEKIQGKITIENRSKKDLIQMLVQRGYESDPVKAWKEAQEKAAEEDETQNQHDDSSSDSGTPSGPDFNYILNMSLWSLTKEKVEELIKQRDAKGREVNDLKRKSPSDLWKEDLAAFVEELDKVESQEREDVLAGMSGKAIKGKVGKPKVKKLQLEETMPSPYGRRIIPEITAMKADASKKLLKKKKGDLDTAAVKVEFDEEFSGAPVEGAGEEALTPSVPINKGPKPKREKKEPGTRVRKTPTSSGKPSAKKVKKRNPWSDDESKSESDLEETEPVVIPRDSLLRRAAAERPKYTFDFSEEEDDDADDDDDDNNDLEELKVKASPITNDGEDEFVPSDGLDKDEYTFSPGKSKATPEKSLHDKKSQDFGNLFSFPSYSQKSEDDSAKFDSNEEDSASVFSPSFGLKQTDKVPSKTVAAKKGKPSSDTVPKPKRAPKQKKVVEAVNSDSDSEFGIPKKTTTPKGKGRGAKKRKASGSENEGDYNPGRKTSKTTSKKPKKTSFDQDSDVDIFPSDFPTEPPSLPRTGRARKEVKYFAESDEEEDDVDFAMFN
Method: (§1) (A) EMSA was performed by purified full-length TOP2A or TOP2B proteins at a contraction of 300 nM with IRDay700 labeled 5ZRF DNA oligo at a concentration of 100 nM in the presence of −/+200 µM of ICRF193, T60, T637, and T638. […] Reactions were subjected to fluorescence […], which were detected by using the Multimode Microplate Reader (Infinite F500). (D) DNA cleavage assays were performed using full-length human TOP2A and TOP2B incubated with the supercoiled pHOT plasmid in the presence of 200 µM of etoposide plus 1, 100, or 200 µM of ICRF193, T60, T637, and T638. Reactions were separated on a DNA gel with ethidium bromide. All experiments were repeated three times, and one representative image was shown. Note: N, nicked DNA; L, linear DNA; and SC, supercoiled DNA.

[4] = test system: K562 cells; assay: Immunoblotting of p-H2AXγ (DNA damage); details: K562, 10-20 µM, 4 h
Method: (§4) (A) K562 cells were treated with 0, 0.5, 1, 5, 10, 15, and 20 uM of T60 or 0, 0.5, 1, 5, 10, 15, 20, 50, and 100 uM of T637 and T638 for 24, 48, or 72 h. […] (B) NCI-H446 small cell lung cancer line and Hela cervical cancer line were treated with 0, 0.5, 1, 5, 10, 15, and 20 uM of T60 or 0, 0.5, 1, 5, 10, 15, 20, 50, and 100 uM of T637 and T638 for five days. Cell growth rates were measured by using Incucyte^TM. (C) K562 cells were treated with 0, 5, 10, 15, and 20 uM of T60, T637, or T638 for 48 h. Cytotoxicity was evaluated by measuring the LDH levels from the culture media. (D) K562 cells were treated with the vehicle or 10–20 µM of etoposide, T60, T637, or T638 for 4 h. Immunoblotting measured p-H2AXγ levels in cells with vinculin as a loading control.

[5] = molecular target: T2, human TOP2A(431-1193) (Homo sapiens, UniProt P11388); assay: Fluorescence polarization (FP) assay of TOP2A-DNA interaction; type: binding; details: 500 nM protein, 0.01-200 µM compound
T2 construct: 6xHis (N); made in house; host or cells: E. coli BL21 (DE3)
T2 sequence (P11388 431-1193): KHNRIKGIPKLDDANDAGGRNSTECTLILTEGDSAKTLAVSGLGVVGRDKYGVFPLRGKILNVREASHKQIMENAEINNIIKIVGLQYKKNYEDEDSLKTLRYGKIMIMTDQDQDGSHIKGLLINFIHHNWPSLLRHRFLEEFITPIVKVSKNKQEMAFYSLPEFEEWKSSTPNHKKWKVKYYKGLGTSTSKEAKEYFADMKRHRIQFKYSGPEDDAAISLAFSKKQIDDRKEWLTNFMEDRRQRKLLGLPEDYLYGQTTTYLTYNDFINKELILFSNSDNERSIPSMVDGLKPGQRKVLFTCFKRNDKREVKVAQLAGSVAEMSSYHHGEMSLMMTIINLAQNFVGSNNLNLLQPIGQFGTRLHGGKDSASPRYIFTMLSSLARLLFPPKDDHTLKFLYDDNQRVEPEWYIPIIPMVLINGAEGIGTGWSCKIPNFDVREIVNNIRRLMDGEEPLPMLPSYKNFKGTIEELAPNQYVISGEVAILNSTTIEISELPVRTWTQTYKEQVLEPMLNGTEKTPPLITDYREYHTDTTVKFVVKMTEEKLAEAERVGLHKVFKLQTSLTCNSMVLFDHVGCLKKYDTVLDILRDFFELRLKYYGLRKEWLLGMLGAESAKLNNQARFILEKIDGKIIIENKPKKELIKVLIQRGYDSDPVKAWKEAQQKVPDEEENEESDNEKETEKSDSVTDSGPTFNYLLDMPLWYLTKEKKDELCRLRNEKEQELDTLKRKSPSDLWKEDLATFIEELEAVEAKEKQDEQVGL
Method: Fluorescent polarization assay was performed in Corning® Low Volume 384-well Black Flat Bottom microplate. […] Triplicate reactions were transferred onto the microplate and incubated at room temperature for 20 min. Fluorescence polarization (FP) measurements were taken by Tecan Infinite F500 with the excitation wavelength of 485 nm and emission wavelength of 535 nm.
as §1

[6] = test system: K562 cells; assay: Cytotoxicity by LDH release; details: K562, 0-20 uM, 48 h
Method: as §4

[7] = test system: K562 leukemia cells; assay: K562 cell proliferation (MTS assay); details: for Maximum cell proliferation inhibition: K562, up to 100 uM; for inhibition at 20 µM: Homo sapiens, read-out: Maximum cell proliferation inhibition
Method: as §4

[8] = molecular target: T3, TOP2B (Homo sapiens, UniProt Q02880); assay: Supercoiled plasmid DNA relaxation assay, TOP2B; type: biochemical; details: 0.01-200 uM, three biological repeats
T3 sequence (Q02880 whole entry): as the sequence (Q02880 whole entry) above
Method: (§2) Figure 3 T637 and T638 are TOP2B inhibitors. (A) K-DNA decatenation assays and (B) supercoiled plasmid DNA relaxation assays are used to measure TOP2B activity in the presence of 0.01–200 uM T637 or T638. Three biological repeats were performed with each concentration of the compounds, and the densitometry of the D-DNA bands from (A) and the SC bands from (B) was used to establish an inhibition curve for IC50 calculation.

[9] = molecular target: T1, full-length TOP2B; assay: EMSA, full-length TOP2B with 5ZRF DNA oligo; type: binding; set-up: EMSA was performed by purified full-length TOP2A or TOP2B proteins; details: 200 µM compound, 300 nM protein, 100 nM oligo
Method: as §1

[10] = Solubility by LC/MS/MS; type: physicochemical; details: for solubility at 1 h: kinetic from dmso stock
Method: Stock solutions of the tested compounds at 50 mM in dimethyl sulfoxide (DMSO) were diluted 50-fold in methanol (MeOH), Roswell Park Memorial Institute-1640 (RPMI1640), plus 5% charcoal-stripped serum (CSS) from Sigma-Aldrich (media) and phosphate-buffered saline (PBS), and vortexed at room temperature for 1 h at 800 rpm. The resulting solutions were centrifuged at 20,000× g for 5 min, and the saturated supernatants were diluted 40-fold in acetonitrile. The resultant solutions were subjected to LC/MS/MS to determine the solubility.

[11] = molecular target: T4, full-length TOP2A (Homo sapiens, UniProt P11388); assay: EMSA, full-length TOP2A with 5ZRF DNA oligo; type: binding; set-up: EMSA was performed by purified full-length TOP2A or TOP2B proteins; details: 200 µM compound, 300 nM protein, 100 nM oligo
T4 sequence (P11388 whole entry): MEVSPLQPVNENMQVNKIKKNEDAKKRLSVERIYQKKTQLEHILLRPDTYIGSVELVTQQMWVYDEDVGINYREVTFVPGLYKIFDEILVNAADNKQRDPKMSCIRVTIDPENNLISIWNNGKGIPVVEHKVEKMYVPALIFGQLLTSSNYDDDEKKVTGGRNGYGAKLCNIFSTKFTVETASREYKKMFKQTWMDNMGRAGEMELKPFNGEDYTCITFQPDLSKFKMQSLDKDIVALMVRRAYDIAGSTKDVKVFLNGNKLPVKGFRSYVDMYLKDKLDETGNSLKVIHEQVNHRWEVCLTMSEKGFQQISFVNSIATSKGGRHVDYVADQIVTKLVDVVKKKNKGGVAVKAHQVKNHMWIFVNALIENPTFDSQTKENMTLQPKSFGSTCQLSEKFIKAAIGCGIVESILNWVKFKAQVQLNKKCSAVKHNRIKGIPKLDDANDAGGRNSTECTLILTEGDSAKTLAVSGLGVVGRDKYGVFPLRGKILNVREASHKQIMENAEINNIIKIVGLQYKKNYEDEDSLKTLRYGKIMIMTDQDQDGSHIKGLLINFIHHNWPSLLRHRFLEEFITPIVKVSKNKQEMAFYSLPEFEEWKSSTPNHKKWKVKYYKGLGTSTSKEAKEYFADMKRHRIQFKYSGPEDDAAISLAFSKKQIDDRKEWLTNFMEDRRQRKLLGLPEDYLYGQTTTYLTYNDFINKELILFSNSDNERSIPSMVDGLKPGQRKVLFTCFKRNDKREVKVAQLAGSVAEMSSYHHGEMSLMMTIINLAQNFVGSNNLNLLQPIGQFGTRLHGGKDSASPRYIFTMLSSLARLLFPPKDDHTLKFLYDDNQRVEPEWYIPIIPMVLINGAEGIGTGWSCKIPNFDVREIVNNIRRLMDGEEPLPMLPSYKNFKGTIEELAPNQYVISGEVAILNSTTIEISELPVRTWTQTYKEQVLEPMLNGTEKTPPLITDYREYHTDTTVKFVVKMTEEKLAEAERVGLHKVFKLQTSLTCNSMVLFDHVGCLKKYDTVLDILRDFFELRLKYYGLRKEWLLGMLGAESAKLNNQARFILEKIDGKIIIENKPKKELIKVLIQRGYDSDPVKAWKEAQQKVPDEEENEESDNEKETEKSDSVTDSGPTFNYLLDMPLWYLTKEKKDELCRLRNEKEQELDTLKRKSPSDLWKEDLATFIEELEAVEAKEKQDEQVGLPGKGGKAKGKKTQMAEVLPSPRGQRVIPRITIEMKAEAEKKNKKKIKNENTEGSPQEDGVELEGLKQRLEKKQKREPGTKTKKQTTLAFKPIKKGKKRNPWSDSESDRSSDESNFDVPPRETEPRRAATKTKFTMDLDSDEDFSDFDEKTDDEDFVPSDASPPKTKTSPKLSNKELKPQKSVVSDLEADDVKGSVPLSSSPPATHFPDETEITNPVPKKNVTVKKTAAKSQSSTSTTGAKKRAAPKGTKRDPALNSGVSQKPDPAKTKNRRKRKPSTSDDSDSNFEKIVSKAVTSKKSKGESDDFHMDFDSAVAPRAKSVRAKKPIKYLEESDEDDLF
Method: as §1

[12] = Crystal formation (precipitation) in cell cultures; type: physicochemical
Method: Both T637 and T638 have improved solubility in aqueous solution and culture media compared to T60 (Figure 1). […] When cells are growing in the culture media and treated with T60 at concentrations ≥50 uM for two days, T60 will form crystals, likely due to the altered pH values by the cells that induce T60 precipitation. […] These improvements in solubility allow higher doses of compounds to be used to treat cancer cells to reach maximum tumor suppression.

[13] = molecular target: T3, TOP2B; assay: K-DNA decatenation assay, TOP2B; type: biochemical; details: 0.01-200 uM, three biological repeats
Method: as §2

[14] = molecular target: T5, TOP2A (Homo sapiens, UniProt P11388); assay: K-DNA decatenation assay, TOP2A; type: biochemical; details: 0.01-200 uM, three biological repeats
T5 sequence (P11388 whole entry): as above
Method: (§3) Figure 2 T637 and T638 are TOP2A inhibitors. (A) K-DNA decatenation assays and (B) supercoiled plasmid DNA relaxation assays are used to measure TOP2A enzyme activity in the presence of 0.01–200 uM T637 or T638. Three biological repeats were performed with each concentration of the compounds, and the densitometry of the D-DNA bands from (A) and the SC bands from (B) was used to establish an inhibition curve for IC50 calculation.

[15] = molecular target: T2, human TOP2A(431-1193); assay: EMSA, TOP2A(431-1193) with 5ZRF DNA oligo; type: binding; details: 2 uM protein, 300 nM oligo
[16] = molecular target: T4, full-length TOP2A; assay: DNA cleavage assay, TOP2A; type: biochemical; set-up: DNA cleavage assays were performed using full-length human TOP2A and TOP2B; details: 200 µM etoposide plus 1, 100 or 200 µM compound, pHOT plasmid
Method: as §1

[17] = molecular target: T5, TOP2A; assay: Supercoiled plasmid DNA relaxation assay, TOP2A; type: biochemical; details: 0.01-200 uM, three biological repeats
Method: as §3

[18] = molecular target: T6, TOP2A(431-1193) (Homo sapiens, UniProt P11388 431-1193); assay: fluorescence polarization; merbarone 0.01-200 uM; 3 mM Mg2+; FP: 20 mM HEPES-NaOH pH 7.4, 2 mM DTT, 3 mM MgCl2, 0.05% NP-40, protease inhibitors, room temperature 20 min; EMSA buffer not in material; details: protein: recombinant; tags: N-terminal 6xHis (pET28a); label: 3' 6-FAM (Results text says NT474 dye); blunt; self-complementary 20-mer, 2 copies
T6 sequence (P11388 431-1193): as the sequence (P11388 431-1193) above

[19] = molecular target: TOP2A full-length (Homo sapiens, UniProt P11388 1-1531); assay: EMSA; 200 uM ICRF193; FP: 20 mM HEPES-NaOH pH 7.4, 2 mM DTT, 3 mM MgCl2, 0.05% NP-40, protease inhibitors, room temperature 20 min; EMSA buffer not in material; details: protein: recombinant; label: IRDye700 (printed IRDay700); blunt; self-complementary 20-mer, 2 copies
Sequence of TOP2A full-length (P11388 whole entry): as the sequence (P11388 whole entry) above

[20] = molecular target: TOP2B full-length (Homo sapiens, UniProt Q02880 1-1626); assay: as above; details: protein: recombinant; label: IRDye700 (printed IRDay700); blunt; self-complementary 20-mer, 2 copies
Sequence of TOP2B full-length (Q02880 whole entry): as the sequence (Q02880 whole entry) above

[21] = molecular target: T6, TOP2A(431-1193); assay: EMSA; merbarone; FP: 20 mM HEPES-NaOH pH 7.4, 2 mM DTT, 3 mM MgCl2, 0.05% NP-40, protease inhibitors, room temperature 20 min; EMSA buffer not in material; details: protein: recombinant; tags: N-terminal 6xHis (pET28a); label: IRDye700 (printed IRDay700); blunt; self-complementary 20-mer, 2 copies
[22] = RPMI1640 plus 5% charcoal-stripped serum, plasma or biological fluid, cell culture media with serum, read-out: Solubility Media/FBS
[23] = methanol, organic solvent or mixture, methanol, read-out: Solubility Methanol
[24] = phosphate-buffered saline, aqueous buffer, PBS, read-out: Solubility PBS

Molecule	half-life at 1 uM [1] [min]	microsomal CLint at 1 uM [1] [µL/min/mg]	Fluorescence induced by the ethidium bromide/DNA complex reduced by increasing doses (DNA intercalation) [2]	Prevention of etoposide-induced DNA cleavage, TOP2B [3]	Effect on TOP2A-DNA interaction (FP) [5]	Cytotoxicity (LDH release), in words [6]	IC50 [8] [µM]	Block of TOP2B-DNA oligo complex formation (EMSA) [9]	solubility at 1 h [10, 22] [µM]	solubility at 1 h [10, 23] [µM]	solubility at 1 h [10, 24] [µM]	Block of TOP2A-DNA oligo complex formation (EMSA) [11]	IC50 [13] [µM]	IC50 [14] [nM]	Inhibition of TOP2A(431-1193)-DNA interaction (EMSA) [15]	Prevention of etoposide-induced DNA cleavage, TOP2A [16]	IC50 [17] [µM]	other results
CC(=O)Nc1cc(Nc2ccccc2)ccc1NC(=O)c1ccc[nH]c1=S [T637]	20	116	not	did prevent etoposide-induced DNA cleavage	reduced the TOP2A–DNA interaction in a dose-dependent manner	not observed	~18.6	block	707	> 1000	20 (≈ 7.57 µg/mL)	block	~8.9	~1400	inhibited TOP2A–DNA interaction dose-dependently	did prevent etoposide-induced DNA cleavage	16.8	Intracellular DNA damage (phospho-H2AXγ protein levels) [4]: do not cause intracellular DNA damage; Maximum cell proliferation inhibition ([7]; 48 h): 100%; Maximum cell proliferation inhibition ([7]; 72 h): 100%; Crystal formation in cell cultures, in words ([12]; up to 100 uM): no crystal formation
ICRF193 [reference compound]	–	–	–	did not prevent etoposide-induced DNA cleavage	–	–	–	–	–	–	–	not	–	–	–	did not prevent etoposide-induced DNA cleavage	–	–
O=C(Nc1ccc(Nc2ccccc2)cc1)c1ccc[nH]c1=S [T60]	51	46	not	–	reduced the TOP2A–DNA interaction in a dose-dependent manner	not observed	~8.9	block	206	> 1000	5.8 (≈ 1.86 µg/mL)	block	~3.1	~300	inhibited TOP2A–DNA interaction dose-dependently	–	4.7	inhibition at 20 µM ([7]; K562, 24 h): ~38%; inhibition at 20 µM ([7]; K562, 48 h): 71%; inhibition at 20 µM ([7]; K562, 72 h): 86%; Solubility Media/FBS ([10]; cell culture media with serum): ~ 200 uM; Concentration at which the compound forms crystals in culture media with growing cells ([12]; cells treated for two days): ≥ 50 µM
B1	–	–	–	–	–	–	–	–	–	–	–	–	–	–	–	–	–	binding result [18]: binds
B2	–	–	–	–	–	–	–	–	–	–	–	–	–	–	–	–	–	binding result [19]: binds; binding result [20]: binds; binding result [21]: binds

Source: article PMC8345109, “Optimization of New Catalytic Topoisomerase II Inhibitors as an Anti-Cancer Therapy” (Cancers, 2021)
